Measured values reported in US11571467B2, “Dodecafluoropentane emulsion as a stroke and ischemia therapy” (The Board of Trustees of the University of Arkansas, priority 2011, dated 2023).
Where two headings read alike, the source gives them in different places.

Legend:
[1] = Pharmacokinetic study, DDFP blood levels by headspace GC-MS; type: in vivo, New Zealand White rabbits
Method: Pharmacokinetic study. In alert New Zealand White rabbits (5.1±0.5 kg; N=8), cannulae were placed in a vein of one ear and in an artery of the other ear. After intravenous injection of DDFPe (0.6 ml/kg in a 2% w/v emulsion) arterial blood samples were taken over a period of 4 to 7 h. The dose of DDFPe was repeated every 90 min in four animals. Samples were stored at −20° C. until they were analyzed for DDFP content by a headspace gas chromatograph-mass spectrometer (Varian TSQ).
Because infarct volumes were not normally distributed, ranks of infarct volume were analyzed with PROC GLM of SAS software (Kruskal-Wallis equivalent). Blood levels of DDFP were analyzed for exponential curve fit and exponential decay time constant using KaleidaGraph software v4.01 (2005). Values are given as mean±standard error.

[2] = cited from earlier work
[3] = in the liquid PFC; cited from earlier work

half-life ([1]; New Zealand White, rabbit, arterial whole blood, intravenous, FIG. 15, 0.6 ml/kg of 2% w/v emulsion, read-out: half-life in blood, representative rabbit) [min] | clearance ([1]; New Zealand White, rabbit, arterial whole blood, single DDFPe dose of 0.6 ml/kg IV) [L/h/kg] | half-life ([1]; New Zealand White, rabbit, arterial whole blood, single DDFPe dose of 0.6 ml/kg IV, N=4, read-out: mean half-life in blood) [min] | time for blood level to return to the baseline level after each dose ([1]; multiple doses at 90 min intervals) | time for blood levels to reach non-detectable levels ([1]; single DDFPe dose of 0.6 ml/kg IV) [min] | accumulation in blood ([1]; up to five doses of 0.6 ml/kg at 90 min intervals) | SMILES | half-life in blood ([2]; humans, previous study) [min] | half-life in the blood ([2]; intravenous administration) [min] | DDFP cleared through the lungs / recovered from expired air ([2]; within 2 hours after single intravenous dose) [%] | solubility of oxygen [3] [% v/v]
1.68 | 4.71 ± 1.49 | 1.45 ± 0.17 | less than 30 min | ≤ 30 | no sign of accumulation | FC(F)(F)C(F)(F)C(F)(F)C(F)(F)C(F)(F)F [DDFP, dodecafluoropentane] | 2.2 ± 1.2 | 2 | 99 | 80
– | – | – | – | – | – | FC(F)(F)C(F)(F)C(F)(F)C(F)(F)C(F)(F)C(F)(F)C(F)(F)C(F)(F)Br [PFOB, perfluorooctylbromide] | – | – | – | 50
– | – | – | – | – | – | FC1(F)C(F)(F)C(F)(F)C2(F)C(F)(F)C(F)(F)C(F)(F)C(F)(F)C2(F)C1(F)F (stereo not drawn) [PFD, perfluorodecalin] | – | – | – | 42
